Measured values from article PMC9317481, “Design and Synthesis of New Hydantoin Acetanilide Derivatives as Anti-NSCLC Targeting EGFR^L858R/T790M Mutations” (Pharmaceuticals, 2022).

Experiments:
PC9 cells = test: MTT antiproliferative assay, PC9; settings: Homo sapiens, PC-9, read-out: IC50 (µM) PC9
[1] = test system: A549, H1975, and PC9 cell lines; test: MTT antiproliferative assay, average of the three NSCLC cell lines; settings: Homo sapiens, read-out: IC50 (µM) Average
H1975 cells = test: MTT antiproliferative assay, H1975; settings: Homo sapiens, NCI-H1975, read-out: IC50 (µM) H1975
A549 cells [2] = test: MTT antiproliferative assay, A549; settings: Homo sapiens, A549, read-out: IC50 (µM) A549
EGFR^L858R = EGFR^L858R (Homo sapiens, UniProt P00533, L858R); test: EGFR kinase assay (L858R)
EGFR^T790M = EGFR^T790M (Homo sapiens, UniProt P00533, T790M); test: EGFR kinase assay (T790M)
EGFR^WT = EGFR^WT (Homo sapiens, UniProt P00533); test: EGFR kinase assay (wild type)
WI-38 normal cells = test: MTT cytotoxicity on normal fibroblast WI-38 cells; settings: for IC50: Homo sapiens, WI-38, read-out: WI-38, IC50 (µM); for fold superior to the reference erlotinib on WI-38: ratio of WI-38 IC50 versus erlotinib
Method: The new prepared candidates 5a–5n were evaluated for their antitumor activities against four selected cell lines, the adenocarcinomic human alveolar basal epithelial cells NCI-A549, NCI-H1975, human pulmonary adenocarcinoma PC9, and the fibroblast-like fetal lung cells WI-38 (purchased from American Type Culture Collection (ATCC), United States of America), using an MTT assay [26], as described earlier [27].

Akt = Akt enzyme assay (Phospho-Ser473 ELISA) in A549 cells; type: cell-based, human; settings: read-out: Enzymatic Inhibition, IC50, (nM) Akt
Method: Akt expression level was assayed using the Phospho Sandwich Akt (Phospho-Ser473) ELISA Kit (Cat. # MBS9511022, MyBioSource, San Diego, CA, USA) containing the components necessary for the semi-quantitative determination of Akt concentrations within experimental cell lysate samples. The assay was performed according to company protocols: the lysates were diluted with assay diluent and 100 μL/well was dispensed, wrapped with parafilm, and incubated for 2 h. They were shaken with RT or overnight at 4 °C. The plate was washed 3 times with 1× Wash Buffer 300 μL/well with a vacuum-based plate washer. Then, the plate was stricken on absorbent paper to remove as much residual liquid as possible. The Detection Antibody was diluted to 1× and 100 μL/well was dispensed, wrapped with parafilm, and incubated on a shaker for 2 hrs at RT, and the washing step was repeated. Streptavidin-HRP was diluted to 1× and 100 μL/well was dispensed, wrapped with parafilm, and incubated on a shaker for 30 min at RT. Ready-to-use substrate was brought to RT and 100 μL/well was dispensed and the reaction was allowed to incubate on an orbital shaker for 20–30 min. The reaction was stopped with stop solution 100 μL/well. The wells turned from blue to yellow and were read at 450 nm.

ERK = ERK enzyme assay (ELISA) in A549 cells; type: cell-based, human; settings: read-out: Enzymatic Inhibition, IC50, (nM) ERK
Method: ERK ELISA Kit (Cat. # E4317-100, BioVision, Inc., Waltham, MA, USA) was used for the in vitro quantitative determination of Human ERK. Firstly, the plate was washed 2 times with Wash Solution before the standard, sample, and control wells were added. A total of 100 μL of each standard or sample was added into appropriate wells. […] The cover was removed and the plate content was discarded without washing or letting the wells completely dry. A total of 0.1 mL of Biotin-detection antibody work solution was added into the above wells. […] The solution was discarded and washed 3 times with Wash Solution. It was washed by filling each well with Wash Buffer (350 μL) using a multi-channel pipette or auto-washer. It was soaked for 1–2 min, and then all residual wash-liquid was removed from the wells by aspiration. After the last wash, any remaining wash buffer was removed by aspirating or decanting. The plate was clapped on absorbent filter papers or other absorbent materials. […] The solution was discarded and washed 5 times with wash solution as mentioned before. […] A total of 50 μL of Stop Solution was added to each well. The result was read at 450 nm within 20 min.

A549 cells [3] = test: Wound healing assay in A549 cells; type: cell-based, human; settings: 0.5, 1 or 2 µM, 72 h
Method: Various articles have highlighted the role of EGFR in the migration of tumor cells. Accordingly, the migratory effects of 5a in A549 cells were assessed using a wound healing assay.
Wound healing assay of 5a was performed using CytoSelect™ 24-well Wound Healing Assay kit (Cat. # CBA-120, Cell Biolabs Inc., Cambridge, UK) per manufacturer’s instructions. In brief, the 24-well plate wound healing inserts were allowed to warm up at room temperature for 10 min., then to each well, 500 µL of A549 cells suspension ([…]) in media containing 10% fetal bovine serum (FBS) was added. Cells were kept in a cell culture incubator until a monolayer formed. Carefully, the insert was removed from the well. The media were slowly aspirated and discarded from the wells. The wells were washed with media to remove dead cells and debris. Finally, the media were added to wells to keep cells hydrated, then wells were visualized under a light microscope. Media containing the indicated concentrations of compound 5a (0.5, 1, or 2 µM) were then added into the wells for 72 h. the wound closure was monitored with a light microscope. The percent closure of the cells into the wound field was measured.

A549 cells [4] = test: Annexin V-FITC/propidium iodide apoptosis assay in A549 cells; type: cell-based, human; settings: IC50 concentration
Method: (§1) The active hydantoin derivative 5a was further investigated for its effect on cell cycle progression and the induction of apoptosis in A549 cells. Exposure of A549 cells to 5a at its IC50 value led to an interference with the normal cell cycle distribution of the cell (Figure 5). […] Meanwhile, 5a was evaluated for its ability to induce apoptosis in A549 cells by staining with propidium iodide and Annexin V-FITC.
(§2) Cell cycle analysis and Annexin V-FITC apoptosis assay were performed as described earlier.
Figure 6 Apoptotic effect of compound 5a on A549 cells. Representative cytograms of apoptotic A549 cells stimulated with 5a or DMSO as a negative control for 24 h. TEXT PRINTED IN THE PICTURE: Control: Necrosis 0.94%; Late apoptosis 0.26%; Early apoptosis 0.41% | 5a: Necrosis 11.59%; Late apoptosis 19.89%; Early apoptosis 3.77%

A549 cells [5] = test: Cell cycle analysis by flow cytometry in A549 cells; type: cell-based, human; settings: 5a at its IC50 value
Method: as §1, §2
Figure 5 Compound 5a arrested the cell cycle at the sub G1 and S phases in A549 cells. Representative cell cycle distribution data are shown by flow cytometric analysis upon incubation with 5a or DMSO as a negative control for 24 h.

EGFR phosphorylation = biological target: T1, EGFR phosphorylation (Homo sapiens, UniProt P00533); test: Western blot of EGFR phosphorylation expression in A549 cells; type: cell-based
T1 construct: A549 (harbor EGFR^WT); endogenous in cells; host or cells: A549
Method: In addition, the obtained data were attuned to β-actin expression to exclude the deviations further.
The western blot experiment was performed according to the same procedure described earlier.

[6] = A549 cells treated by 5a, Western blot

Structure (SMILES)	IC50 (PC9 cells) [µM]	melting point [°C]	IC50 [1] [µM]	IC50 (H1975 cells) [µM]	IC50 (A549 cells [2]) [µM]	other results
CC1(c2ccccc2)NC(=O)N(CC(=O)Nc2ccc(F)c(Cl)c2)C1=O (stereo not shown) [5k, N-(3-chloro-4-fluorophenyl)-2-(4-methyl-2,5-dioxo-4-phenylimidazolidin-1-yl)acetamide]	3.25 ± 0.35	170 to 173	25.9	5.84 ± 0.32	68.6 ± 4.32	–
CCOc1ccc(NC(=O)CN2C(=O)NC(C)(c3ccccc3)C2=O)cc1 (stereo not shown) [5l, N-(4-ethoxyphenyl)-2-(4-methyl-2,5-dioxo-4-phenylimidazolidin-1-yl)acetamide]	6.69 ± 0.73	153 to 155	17.6	43.8 ± 2.39	2.37 ± 0.15	–
COc1ccc(C)cc1NC(=O)CN1C(=O)NC(C)(c2ccccc2)C1=O (stereo not shown) [5d, N-(2-methoxy-5-methylphenyl)-2-(4-methyl-2,5-dioxo-4-phenylimidazolidin-1-yl)acetamide]	7.5 ± 0.81	170 to 173	18.4	11.9 ± 0.65	35.8 ± 2.26	–
CC1(c2ccccc2)NC(=O)N(CC(=O)Nc2ccc(F)c(F)c2F)C1=O (stereo not shown) [5i, N-(2,3,4-trifluorophenyl)-2-(4-methyl-2,5-dioxo-4-phenylimidazolidin-1-yl)acetamide]	6.06 ± 0.35	205 to 210	6.93	14 ± 0.76	0.73 ± 0.05	–
COc1ccc(NC(=O)CN2C(=O)NC(C)(c3ccccc3)C2=O)cc1Cl (stereo not shown) [5c, N-(3-chloro-4-methoxyphenyl)-2-(4-methyl-2,5-dioxo-4-phenylimidazolidin-1-yl)acetamide]	21.3 ± 2.31	163 to 166	56	55.3 ± 3.01	91.4 ± 5.75	–
CC1(c2ccccc2)NC(=O)N(CC(=O)Nc2ccc(S(N)(=O)=O)cc2)C1=O (stereo not shown) [5b, N-(4-aminosulphonylphenyl)-2-(4-methyl-2,5-dioxo-4-phenylimidazolidin-1-yl)acetamide]	5.12 ± 0.56	122 to 125	9.29	8.2 ± 0.45	14.5 ± 0.92	–
CC1(c2ccccc2)NC(=O)N(CC(=O)Nc2ccccc2F)C1=O (stereo not shown) [5f, N-(2-fluorophenyl)-2-(4-methyl-2,5-dioxo-4-phenylimidazolidin-1-yl)acetamide]	4.4 ± 0.48	153 to 155	2.57	1.38 ± 0.07	1.94 ± 0.12	IC50 (EGFR^L858R): 0.17 ± 0.003 µM; IC50 (EGFR^T790M): 0.26 ± 0.005 µM; IC50 (EGFR^WT): 0.06 ± 0.011 µM; IC50 (WI-38 normal cells): 42.5 ± 2.32 µM; fold superior to the reference erlotinib on WI-38 (WI-38 normal cells): 2.3 fold
C#Cc1cccc(Nc2ncnc3cc(OCCOC)c(OCCOC)cc23)c1 [Erlotinib, erlotinib, reference compound]	16.3 ± 0.84	–	11.3	9.7 ± 0.53	7.81 ± 0.43	IC50 (Akt): 25.4 nM; IC50 (ERK): 17.5 ± 0.18 nM; IC50 (WI-38 normal cells): 18.6 ± 1.24 µM
COc1cccc(NC(=O)CN2C(=O)NC(C)(c3ccccc3)C2=O)c1 (stereo not shown) [5n, N-(3-methoxyphenyl)-2-(4-methyl-2,5-dioxo-4-phenylimidazolidin-1-yl)acetamide]	6.87 ± 0.75	148 to 151	8.7	18.8 ± 1.02	0.42 ± 0.03	–
COc1ccc(NC(=O)CN2C(=O)NC(C)(c3ccccc3)C2=O)cc1OC (stereo not shown) [5a, N -(3,4-dimethoxyphenyl)-2-(4-methyl-2,5-dioxo-4-phenylimidazolidin-1-yl)acetamide]	10.2 ± 0.53	–	4.79	1.94 ± 0.25	2.26 ± 0.12	IC50 (Akt): 33.8 ± 0.55 nM; wound closure and migration of A549 cells (A549 cells [3]): reduced the wound closure and the migration of A549 cells substantially in a dose-dependent manner; elevation of early apoptotic cells compared to the negative control (A549 cells [4]): 77 folds; elevation of late apoptotic cells compared to the negative control (A549 cells [4]): 9 folds; Early apoptosis (A549 cells [4]; 24 h): 3.77%; Late apoptosis (A549 cells [4]; 24 h): 19.89%; Necrosis (A549 cells [4]; 24 h): 11.59%; IC50 (EGFR^L858R): 0.05 ± 0.001 µM; boost of cells at pre-G1 compared to the control (A549 cells [5]): 22 folds; cells at S phase (A549 cells [5]; 24 h): 40.40%; cells at sub G1 phase (A549 cells [5]; 24 h): 35.25%; IC50 (EGFR^T790M): 0.09 ± 0.002 µM; IC50 (EGFR^WT): 0.03 ± 0.005 µM; OD (EGFR) (EGFR phosphorylation; [6]): 0.79; OD (pEGFR) (EGFR phosphorylation; [6]): 0.33; fold decrease in expression level of EGFR phosphorylation compared to control (EGFR phosphorylation; A549 cells, 0.03 µM of 5a, normalised to β-actin): 2.5 fold; IC50 (ERK): 25.8 ± 41 nM; IC50 (WI-38 normal cells): 49.3 ± 2.75 µM; fold superior to the reference erlotinib on WI-38 (WI-38 normal cells): 2.6 fold
COc1ccccc1NC(=O)CN1C(=O)NC(C)(c2ccccc2)C1=O (stereo not shown) [5m, N-(2-methoxyphenyl)-2-(4-methyl-2,5-dioxo-4-phenylimidazolidin-1-yl)acetamide]	28.3 ± 3.08	85 to 90	14.3	2.27 ± 0.12	12.3 ± 0.78	–
COc1ccc(NC(=O)CN2C(=O)NC(C)(c3ccccc3)C2=O)c(C)c1 (stereo not shown) [5j, N-(4-methoxy-2-methylphenyl)-2-(4-methyl-2,5-dioxo-4-phenylimidazolidin-1-yl)acetamide]	9.97 ± 1.08	143 to 146	15	30.9 ± 1.68	4.11 ± 0.26	–
CC1(c2ccccc2)NC(=O)N(CC(=O)Nc2ccc(F)cc2)C1=O (stereo not shown) [5e, N-(4-fluorophenyl)-2-(4-methyl-2,5-dioxo-4-phenylimidazolidin-1-yl)acetamide]	2.52 ± 0.27	226 to 228	6.35	9.34 ± 0.51	7.19 ± 0.45	–
CC1(c2ccccc2)NC(=O)N(CC(=O)Nc2ccc(F)c(F)c2)C1=O (stereo not shown) [5h, N-(3,4-difluorophenyl)-2-(4-methyl-2,5-dioxo-4-phenylimidazolidin-1-yl)acetamide]	15.4 ± 1.67	195 to 198	16.2	21.3 ± 1.16	11.9 ± 0.75	–
CC1(c2ccccc2)NC(=O)N(CC(=O)Nc2cccc(F)c2)C1=O (stereo not shown) [5g, N-(3-fluorophenyl)-2-(4-methyl-2,5-dioxo-4-phenylimidazolidin-1-yl)acetamide]	11.5 ± 1.25	182 to 185	18.7	6.84 ± 0.37	37.6 ± 2.37	–
